Patent US20100152434A1, “Protein Kinase-binding Nucleosides and Associated Methods” (priority 2007, published 2010)
Where two headings read alike, the source gives them in different places.

Legend:
SF-268 [1] = assay: cells; settings: Homo sapiens, SF-268
SN12C = assay: cells; settings: Homo sapiens
HCT-15 [2] = tested on: HCT-15
UO-31 [3] = assay: cells; settings: Homo sapiens, UO-31
COLO 205 = assay: cells; settings: Homo sapiens, COLO 205
NCI/ADR-RES = assay: cells; settings: Homo sapiens
UACC-62 = assay: cells; settings: Homo sapiens, UACC-62
U251 = assay: cells; settings: Homo sapiens, U-251
UACC-257 [4] = assay: cells; settings: Homo sapiens, UACC-257
TK-10 = assay: cells; settings: Homo sapiens, TK-10
MALME-3M = assay: cells; settings: Homo sapiens
HOP-62 = settings: HOP-52
SK-MEL-2 [5] = assay: cells; settings: Homo sapiens, SK-MEL-2
HCT-15 [6] = assay: cells; settings: Homo sapiens, HCT-15
788-0 = settings: 786-0
UO-31 [7] = tested on: UO-31
A498 = assay: cells; settings: Homo sapiens, A498
SK-MEL-2 [8] = tested on: SK-MEL-2
SF-268 [9] = tested on: SF-268
OVCAR-8 = assay: cells; settings: Homo sapiens, OVCAR-8
UACC-257 [10] = tested on: UACC-257
T-47D = assay: cells; settings: Homo sapiens, T47D
CCRF-CEM = assay: cells; settings: Homo sapiens
[11] = Log10 Concentration −4.0, Molar
[12] = Log10 Concentration −5.0, Molar
[13] = Log10 Concentration −6.0, Molar
[14] = Log10 Concentration −7.0, Molar
[15] = Log10 Concentration −8.0, Molar

CNC(=O)NC[C@H]1O[C@@H](n2cnc3c(NC(=O)Nc4ccccc4)ncnc32)C(O[Si](C)(C)C(C)(C)C)[C@H]1O[Si](C)(C)C(C)(C)C (some centres unmarked) [Compound 25, 2′,3′-Bis-O-(tert-butyldimethylsilyl)-5-deoxy-5′-[(N-methylcarbamoyl)amino]-N^6-(N-phenylcarbamoyl)adenosine]
GI50 (SF-268 [1]): 3.58 µM | IC50 (SF-268 [1]): > 100 µM | GI50 (SN12C): 1.81 µM | IC50 (SN12C): 6.29 µM | TGI (HCT-15 [2]): >1.00E−4 Molar | Percent Growth (HCT-15 [2]; [11]): 6% | Percent Growth (HCT-15 [2]; [12]): 11% | Percent Growth (HCT-15 [2]; [13]): 100% | Percent Growth (HCT-15 [2]; [14]): 106% | Percent Growth (HCT-15 [2]; [15]): 105% | TGI (CAKI-1): 7.93E−6 Molar | Percent Growth (CAKI-1; [11]): −33% | Percent Growth (CAKI-1; [12]): −11% | Percent Growth (CAKI-1; [13]): 96% | Percent Growth (CAKI-1; [14]): 99% | Percent Growth (CAKI-1; [15]): 100% | TGI (SF-295): 3.18E−5 Molar | Percent Growth (SF-295; [11]): −7% | Percent Growth (SF-295; [12]): 7% | Percent Growth (SF-295; [13]): 111% | Percent Growth (SF-295; [14]): 107% | Percent Growth (SF-295; [15]): 103% | GI50 (UO-31 [3]): 2.5 µM | IC50 (UO-31 [3]): > 100 µM | GI50 (COLO 205): 1.59 µM | IC50 (COLO 205): 5.98 µM | GI50 (NCI/ADR-RES): 3.72 µM | IC50 (NCI/ADR-RES): > 100 µM | GI50 (UACC-62): 3.98 µM | IC50 (UACC-62): > 100 µM | GI50 (U251): 2.96 µM | IC50 (U251): > 100 µM | GI50 (UACC-257 [4]): 3.78 µM | IC50 (UACC-257 [4]): > 100 µM | TGI (A549/ATCC): 1.20E−5 Molar | Percent Growth (A549/ATCC; [11]): −30% | Percent Growth (A549/ATCC; [12]): 4% | Percent Growth (A549/ATCC; [13]): 90% | Percent Growth (A549/ATCC; [14]): 98% | Percent Growth (A549/ATCC; [15]): 99% | GI50 (TK-10): 4.29 µM | IC50 (TK-10): > 100 µM | GI50 (MALME-3M): 2.98 µM | IC50 (MALME-3M): > 100 µM | TGI (HOP-62): 1.71E−5 Molar | Percent Growth (HOP-62; Log10 Concentration −4.0 Molar): −55% | Percent Growth (HOP-62; Log10 Concentration −5.0 Molar): 25% | Percent Growth (HOP-62; Log10 Concentration −6.0 Molar): 105% | Percent Growth (HOP-62; Log10 Concentration −7.0 Molar): 108% | Percent Growth (HOP-62; Log10 Concentration −8.0 Molar): 102% | TGI (NCI-H522): 7.14E−6 Molar | Percent Growth (NCI-H522; [11]): −49% | Percent Growth (NCI-H522; [12]): −15% | Percent Growth (NCI-H522; [13]): 90% | Percent Growth (NCI-H522; [14]): 90% | Percent Growth (NCI-H522; [15]): 92% | GI50 (SK-MEL-2 [5]): 2.45 µM | IC50 (SK-MEL-2 [5]): 28.3 µM | GI50 (HCT-15 [6]): 3.62 µM | IC50 (HCT-15 [6]): > 100 µM | TGI (788-0): 3.71E−6 Molar | Percent Growth (788-0; Log10 Concentration −4.0 Molar): −80% | Percent Growth (788-0; Log10 Concentration −5.0 Molar): −83% | Percent Growth (788-0; Log10 Concentration −6.0 Molar): 110% | Percent Growth (788-0; Log10 Concentration −7.0 Molar): 113% | Percent Growth (788-0; Log10 Concentration −8.0 Molar): 103% | TGI (UO-31 [7]): 9.56E−6 Molar | Percent Growth (UO-31 [7]; [11]): −21% | Percent Growth (UO-31 [7]; [12]): −2% | Percent Growth (UO-31 [7]; [13]): 84% | Percent Growth (UO-31 [7]; [14]): 97% | Percent Growth (UO-31 [7]; [15]): 87% | GI50 (A498): 2.03 µM | IC50 (A498): 1.95 µM | TGI (SK-MEL-2 [8]): 5.54E−6 Molar | Percent Growth (SK-MEL-2 [8]; [11]): −67% | Percent Growth (SK-MEL-2 [8]; [12]): −35% | Percent Growth (SK-MEL-2 [8]; [13]): 105% | Percent Growth (SK-MEL-2 [8]; [14]): 110% | Percent Growth (SK-MEL-2 [8]; [15]): 106% | TGI (SF-268 [9]): 1.40E−5 Molar | Percent Growth (SF-268 [9]; [11]): 45% | Percent Growth (SF-268 [9]; [12]): 8% | Percent Growth (SF-268 [9]; [13]): 102% | Percent Growth (SF-268 [9]; [14]): 106% | Percent Growth (SF-268 [9]; [15]): 104% | GI50 (OVCAR-8): 4.01 µM | IC50 (OVCAR-8): > 100 µM | TGI (UACC-257 [10]): 2.02E−5 Molar | Percent Growth (UACC-257 [10]; [11]): −24% | Percent Growth (UACC-257 [10]; [12]): 11% | Percent Growth (UACC-257 [10]; [13]): 104% | Percent Growth (UACC-257 [10]; [14]): 100% | Percent Growth (UACC-257 [10]; [15]): 97% | GI50 (T-47D): 2.87 µM | IC50 (T-47D): > 100 µM | GI50 (CCRF-CEM): 3.59 µM | IC50 (CCRF-CEM): > 100 µM | TGI (HOP-92): 5.16E−6 Molar | Percent Growth (HOP-92; [11]): −50% | Percent Growth (HOP-92; [12]): −25% | Percent Growth (HOP-92; [13]): 69% | Percent Growth (HOP-92; [14]): 80% | Percent Growth (HOP-92; [15]): 85%
